Experiment: molar heat capacity at constant pressure
Conditions: Liquid

CC(C)CCCCCCCOC(=O)c1ccccc1C(=O)OCCCCCCCC(C)C
molar heat capacity at constant pressure [J/K/mol]
Conditions	Flow calorimetry	Numerical integration with Cp at 1 atm and U at elevated pressures
293.15 K, 100 kPa	754.86	755.75
293.15 K, 10000 kPa	–	754.86
293.15 K, 20000 kPa	–	753.52
293.15 K, 30000 kPa	–	753.07
293.15 K, 40000 kPa	–	752.18
293.15 K, 50000 kPa	–	751.73
293.15 K, 60000 kPa	–	751.29
293.15 K, 70000 kPa	–	750.84
293.15 K, 80000 kPa	–	750.84
293.15 K, 90000 kPa	–	750.39
293.15 K, 100000 kPa	–	750.39
293.15 K, 110000 kPa	–	749.95
293.15 K, 120000 kPa	–	749.95
293.15 K, 130000 kPa	–	749.95
293.15 K, 140000 kPa	–	749.95
303.15 K, 100 kPa	–	771.39
303.15 K, 10000 kPa	–	770.05
303.15 K, 20000 kPa	–	768.71
303.15 K, 30000 kPa	–	767.81
303.15 K, 40000 kPa	–	767.37
303.15 K, 50000 kPa	–	766.92
303.15 K, 60000 kPa	–	766.47
303.15 K, 70000 kPa	–	766.03
303.15 K, 80000 kPa	–	765.58
303.15 K, 90000 kPa	–	765.58
303.15 K, 100000 kPa	–	765.13
303.15 K, 110000 kPa	–	765.13
303.15 K, 120000 kPa	–	765.13
303.15 K, 130000 kPa	–	765.13
303.15 K, 140000 kPa	–	765.13
313.15 K, 100 kPa	788.81	786.57
313.15 K, 10000 kPa	–	785.23
313.15 K, 20000 kPa	–	784.34
313.15 K, 30000 kPa	–	783.45
313.15 K, 40000 kPa	–	782.55
313.15 K, 50000 kPa	–	782.11
313.15 K, 60000 kPa	–	781.66
313.15 K, 70000 kPa	–	781.21
313.15 K, 80000 kPa	–	781.21
313.15 K, 90000 kPa	–	780.77
313.15 K, 100000 kPa	–	780.77
313.15 K, 110000 kPa	–	780.77
313.15 K, 120000 kPa	–	780.77
313.15 K, 130000 kPa	–	780.32
313.15 K, 140000 kPa	–	780.32
323.15 K, 100 kPa	–	802.65
323.15 K, 10000 kPa	–	801.31
323.15 K, 20000 kPa	–	799.97
323.15 K, 30000 kPa	–	799.08
323.15 K, 40000 kPa	–	798.63
323.15 K, 50000 kPa	–	797.74
323.15 K, 60000 kPa	–	797.29
323.15 K, 70000 kPa	–	797.29
323.15 K, 80000 kPa	–	796.85
323.15 K, 90000 kPa	–	796.4
323.15 K, 100000 kPa	–	796.4
323.15 K, 110000 kPa	–	796.4
323.15 K, 120000 kPa	–	796.4
323.15 K, 130000 kPa	–	796.4
323.15 K, 140000 kPa	–	796.4
333.15 K, 100 kPa	816.5	818.73
333.15 K, 10000 kPa	–	817.39
333.15 K, 20000 kPa	–	816.05
333.15 K, 30000 kPa	–	815.16
333.15 K, 40000 kPa	–	814.27
333.15 K, 50000 kPa	–	813.82
333.15 K, 60000 kPa	–	813.37
333.15 K, 70000 kPa	–	812.93
333.15 K, 80000 kPa	–	812.93
333.15 K, 90000 kPa	–	812.48
333.15 K, 100000 kPa	–	812.48
333.15 K, 110000 kPa	–	812.48
333.15 K, 120000 kPa	–	812.48
333.15 K, 130000 kPa	–	812.48
333.15 K, 140000 kPa	–	812.48
343.15 K, 100 kPa	–	835.26
343.15 K, 10000 kPa	–	833.92
343.15 K, 20000 kPa	–	832.58
343.15 K, 30000 kPa	–	831.69
343.15 K, 40000 kPa	–	830.79
343.15 K, 50000 kPa	–	830.35
343.15 K, 60000 kPa	–	829.9
343.15 K, 70000 kPa	–	829.45
343.15 K, 80000 kPa	–	829.01
343.15 K, 90000 kPa	–	829.01
343.15 K, 100000 kPa	–	829.01
343.15 K, 110000 kPa	–	829.01
343.15 K, 120000 kPa	–	829.01
343.15 K, 130000 kPa	–	828.56
343.15 K, 140000 kPa	–	829.01
353.15 K, 100 kPa	852.23	852.23
353.15 K, 10000 kPa	–	850.45
353.15 K, 20000 kPa	–	849.11
353.15 K, 30000 kPa	–	848.21
353.15 K, 40000 kPa	–	847.32
353.15 K, 50000 kPa	–	846.87
353.15 K, 60000 kPa	–	846.43
353.15 K, 70000 kPa	–	845.98
353.15 K, 80000 kPa	–	845.98
353.15 K, 90000 kPa	–	845.53
353.15 K, 100000 kPa	–	845.53
353.15 K, 110000 kPa	–	845.53
353.15 K, 120000 kPa	–	845.53
353.15 K, 130000 kPa	–	845.53
353.15 K, 140000 kPa	–	845.53
363.15 K, 100 kPa	–	869.21
363.15 K, 10000 kPa	–	867.42
363.15 K, 20000 kPa	–	866.08
363.15 K, 30000 kPa	–	865.19
363.15 K, 40000 kPa	–	864.29
363.15 K, 50000 kPa	–	863.85
363.15 K, 60000 kPa	–	863.4
363.15 K, 70000 kPa	–	862.95
363.15 K, 80000 kPa	–	862.95
363.15 K, 90000 kPa	–	862.95
363.15 K, 100000 kPa	–	862.51
363.15 K, 110000 kPa	–	862.51
363.15 K, 120000 kPa	–	862.51
363.15 K, 130000 kPa	–	862.51
363.15 K, 140000 kPa	–	862.51
373.15 K, 100 kPa	893.77	886.62
373.15 K, 10000 kPa	–	884.84
373.15 K, 20000 kPa	–	883.5
373.15 K, 30000 kPa	–	882.6
373.15 K, 40000 kPa	–	881.71
373.15 K, 50000 kPa	–	881.26
373.15 K, 60000 kPa	–	880.82
373.15 K, 70000 kPa	–	880.37
373.15 K, 80000 kPa	–	880.37
373.15 K, 90000 kPa	–	879.93
373.15 K, 100000 kPa	–	879.93
373.15 K, 110000 kPa	–	879.93
373.15 K, 120000 kPa	–	879.93
373.15 K, 130000 kPa	–	879.93
373.15 K, 140000 kPa	–	879.93
383.15 K, 100 kPa	–	904.49
383.15 K, 10000 kPa	–	902.7
383.15 K, 20000 kPa	–	901.36
383.15 K, 30000 kPa	–	900.02
383.15 K, 40000 kPa	–	899.58
383.15 K, 50000 kPa	–	898.68
383.15 K, 60000 kPa	–	898.24
383.15 K, 70000 kPa	–	898.24
383.15 K, 80000 kPa	–	897.79
383.15 K, 90000 kPa	–	897.79
383.15 K, 100000 kPa	–	897.79
383.15 K, 110000 kPa	–	897.79
383.15 K, 120000 kPa	–	897.79
383.15 K, 130000 kPa	–	897.79
383.15 K, 140000 kPa	–	897.79
393.15 K, 100 kPa	914.32	922.8
393.15 K, 10000 kPa	–	920.57
393.15 K, 20000 kPa	–	919.23
393.15 K, 30000 kPa	–	918.34
393.15 K, 40000 kPa	–	917.44
393.15 K, 50000 kPa	–	917
393.15 K, 60000 kPa	–	916.55
393.15 K, 70000 kPa	–	916.1
393.15 K, 80000 kPa	–	916.1
393.15 K, 90000 kPa	–	915.66
393.15 K, 100000 kPa	–	915.66
393.15 K, 110000 kPa	–	915.66
393.15 K, 120000 kPa	–	915.66
393.15 K, 130000 kPa	–	915.66
393.15 K, 140000 kPa	–	916.1
403.15 K, 100 kPa	–	941.12
403.15 K, 10000 kPa	–	938.88
403.15 K, 20000 kPa	–	937.54
403.15 K, 30000 kPa	–	936.65
403.15 K, 40000 kPa	–	935.76
403.15 K, 50000 kPa	–	934.86
403.15 K, 60000 kPa	–	934.86
403.15 K, 70000 kPa	–	934.42
403.15 K, 80000 kPa	–	934.42
403.15 K, 90000 kPa	–	933.97
403.15 K, 100000 kPa	–	933.97
403.15 K, 110000 kPa	–	933.97
403.15 K, 120000 kPa	–	933.97
403.15 K, 130000 kPa	–	934.42
403.15 K, 140000 kPa	–	934.42
413.15 K, 100 kPa	–	959.88
413.15 K, 10000 kPa	–	957.64
413.15 K, 20000 kPa	–	956.3
413.15 K, 30000 kPa	–	954.96
413.15 K, 40000 kPa	–	954.07
413.15 K, 50000 kPa	–	953.62
413.15 K, 60000 kPa	–	953.18
413.15 K, 70000 kPa	–	953.18
413.15 K, 80000 kPa	–	952.73
413.15 K, 90000 kPa	–	952.73
413.15 K, 100000 kPa	–	952.73
413.15 K, 110000 kPa	–	952.73
413.15 K, 120000 kPa	–	952.73
413.15 K, 130000 kPa	–	953.18
413.15 K, 140000 kPa	–	953.18
423.15 K, 100 kPa	981.32	–
